In patent US20210094922A1, “Dyes for Analysis of Soluble Protein Aggregates or Misfolded Protein Oligomers” (The Penn State Research Foundation, priority 2018, published 2021):

What was measured:
[1] = molecular target: T1, Htt-97Q-Halo (Homo sapiens, UniProt P42858); experiment: AggTag imaging of Htt-Halo aggregation in HEK293T cells; type: cell-based; settings: non-specific binding control
T1 construct: using the Huntingtin exon 1 protein (Htt) with expansion of a polyglutamine tract within its N-terminal domain; expressed in transfected cells; host or cells: HEK293T
Procedure: (§1) (a) The dual-probe live cell imaging experiment. Halo-tag fusion proteins were labeled in the presence of both the non-fluorogenic coumarin ligand (1 μM) and 4 (1 µM). The newly synthesized Htt-Halo proteins were equally labeled with either the coumarin ligand or 4. The coumarin ligand is fluorescent both before and after aggregation of Htt-Halo. By contrast, signal of 4 exclusively arises from Htt-Halo aggregates. (b) Dual probes labeling confirms expression of proteins. The Htt Q0-Halo and Htt Q97-Halo proteins were transiently transfected and expressed in HEK293T cells for 24 h, in the presence of 1 μM coumarin Halo-Tag ligand and 1 μM of 4. In cells expressing Htt Q97-Halo proteins, punctate structures in the coumarin channel coincided with the turn-on fluorescence of 4. […] (c) The Htt Q97 protein, without a Halo-Tag, was transiently transfected and expressed in HEK293T cells for 24 h, in the presence of 1 μM of 4. No turn-on fluorescence of 4 was found. Red: fluorescence from the SOD1(V31A)-Halo-4 conjugate. Blue: coumarin Halo-Tag ligand in (a) or nucleus stained by Hoechst 33342 in (b). Scale bar: 10 μm. (d) Fluorescent intensity of cell lysates from samples as represented in FIG. 4d. Error bars: standard error (n=3).
(§2) Confocal microscope imaging. The HEK293T cells were seeded at 25% confluency 24 h prior to transfection in poly-D-lysine coated 35 mm glass bottom dishes (MatTek Corporation). Cells were grown in DMEM media supplemented with 10% FBS and Penicillin-Streptomycin antibiotics until they reached 50-60% confluency. Transfection was carried out using X-tremeGene™ 9 DNA transfection reagent (Roche) according to the manufacturer's instructions. Proteins were expressed for 24 h prior to analyses. To label proteins with Halo-Tag fusion, protein expression was carried out in the presence of 1 μM 4 or 1 μM TMR Halo-Tag ligand to form covalent conjugate with the Halo-Tag domain. For a dual-probe labeling scheme, 1 μM 4 and 1 μM coumarin Halo-Tag ligand to simultaneously form covalent conjugate with the Halo-Tag domain.
(§3) To wash off unbound Halo ligands, the cells were washed extensively by replacing media with fresh DMEM and incubating for 30 min at 37° C. For confocal fluorescence imaging with either 4-labeled Halo fusion, TMR-labeled Halo fusion, EGFP fusion, or mCherry fusion proteins, DMEM media was replaced with FluoroBrite™ DMEM media (ThermoFisher) supplemented with 10% FBS, and Hoechst 33342 (0.1 μg/mL). For confocal fluorescence imaging with either dual-probe labeled Halo fusion with 4 and coumarin ligand, DMEM media was replaced with FluoroBrite™ DMEM media (ThermoFisher) supplemented with 10% FBS. The samples were incubated for 30 min prior to imaging. Media was replaced with fresh FluoroBrite™ DMEM media (ThermoFisher) supplemented with 10% FBS prior to imaging. Confocal images were obtained using Olympus FluoView™ FV1000 confocal microscope. The EGFP fluorescence was visualized using blue argon (488 nm) laser. Nuclear staining and coumarin fluorescence was visualized using violet laser (405 nm). Fluorescence of TMR and 4 were visualized using green HeNe laser (543 nm).

[2] = molecular target: T2, (UniProt P0A3G2+P42858, A155T/A167V/A172T/A224E/C128F/C176G/D78G/DEL18-38/E160K/E257K/H272N/K175M/K195N/L47V/L88M/N227D/S58T/T264A/Y273L/Y87F); experiment: as above; type: cell-based, human; settings: non-aggregating control
T2 construct: using the Huntingtin exon 1 protein (Htt) with expansion of a polyglutamine tract within its N-terminal domain; expressed in transfected cells; host or cells: HEK293T
Procedure: as §1, §2, §3

[3] = tested on: Htt-97Q-Halo; experiment: as above; type: cell-based, human; settings: control
Procedure: as §1, §2, §3

[4] = molecular target: SOD1-A4V-Halo (Homo sapiens, UniProt P00441, A5V); experiment: In vitro heat-induced aggregation of SOD1-A4V-Halo conjugates; type: biochemical
Source text: (B-C) Excitation and emission spectra of 4 (with misfolded oligomers of SOD1-A4V-Halo) and 5 (with insoluble aggregates of SOD1-A4V-Halo).
The inventors installed Halo-tag reactive warhead to 2, resulting in 5.

[5] = molecular target: bovine serum albumin and sodium dodecyl sulfate (Bos taurus, UniProt P02769); experiment: Fluorescence background response to BSA and SDS; settings: incubated with BSA or SDS
Procedure: 20 µM of fluorophores were incubated in H2O, glycerol, dioxane, BSA (2 mg/mL), or SDS (0.2%). Intensities were normalized against the value in either 100% glycerol as 1 for CCVJ and 4, or dioxane as 1 for SBD. Parameters for fluorescence measurement: SBD (Ex=450 nm/Em=545 nm), CCVJ (Ex=450 nm/Em=500 nm), 4 (Ex=530 nm/Em=630 nm). Error bars: standard error (n=3).

[6] = Photophysical parameters of fluorophores in glycerol; type: physicochemical
Procedure: FP analogues (20 μM) were prepared in glycerol:H2O mixture with increasing glycerol concentrations. In addition, fluorescence intensity in 1,4-dioxane was measured to evaluate their response to polarity. Fluorescence measurement was carried out using a Tecan infinite M1000Pro fluorescence microplate reader at excitation and emission wavelengths as indicated. All readings were normalized against the fluorescence intensity in 100% glycerol as 1. Error bars: standard error (n=3).
FP analogues (20 μM) were prepared in glycerol. Spectra were collected with emission wavelength of 420 nm for 1, 525 nm for 2, 620 nm for 3, 3a and 3b. All measurements were carried out using a Tecan infinite M1000Pro fluorescence microplate reader.
FP analogues (20 μM) were prepared in glycerol. Spectra were collected with excitation wavelength of 370 nm for 1, 455 nm for 2, 530 nm for 3 and 3b, 485 nm for 3a. All measurements were carried out using a Tecan infinite M1000Pro fluorescence microplate reader.
FP analogues (10 μM) were prepared in glycerol. Spectra were collected with 10 mm quartz cuvette. All measurements were carried out using Agilent 300 UV-Vis spectrophotometer.
However, the quantum yield (QY, Φ=0.001 for 1 and Φ=0.027 for 2 in glycerol, Table 2) was much lower than that of a GFP (Φ=0.79).

[7] = 4 with misfolded oligomers, 5 with insoluble aggregates of SOD1-A4V-Halo

Chain of SOD1-A4V-Halo (P00441 with tags, fused parts or gaps A5V): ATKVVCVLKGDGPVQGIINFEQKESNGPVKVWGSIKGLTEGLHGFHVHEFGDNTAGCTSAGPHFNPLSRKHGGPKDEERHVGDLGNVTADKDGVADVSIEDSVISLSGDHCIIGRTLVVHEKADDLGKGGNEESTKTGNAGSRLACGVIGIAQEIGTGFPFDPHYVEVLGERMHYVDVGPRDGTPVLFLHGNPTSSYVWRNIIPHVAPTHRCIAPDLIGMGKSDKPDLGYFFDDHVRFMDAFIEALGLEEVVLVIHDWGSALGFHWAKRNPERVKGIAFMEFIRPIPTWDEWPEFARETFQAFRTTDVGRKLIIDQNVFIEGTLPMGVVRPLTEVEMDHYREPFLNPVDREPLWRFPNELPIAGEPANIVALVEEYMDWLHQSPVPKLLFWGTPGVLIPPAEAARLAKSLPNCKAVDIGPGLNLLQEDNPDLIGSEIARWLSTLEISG
T1 sequence (P42858 with tags, fused parts or gaps): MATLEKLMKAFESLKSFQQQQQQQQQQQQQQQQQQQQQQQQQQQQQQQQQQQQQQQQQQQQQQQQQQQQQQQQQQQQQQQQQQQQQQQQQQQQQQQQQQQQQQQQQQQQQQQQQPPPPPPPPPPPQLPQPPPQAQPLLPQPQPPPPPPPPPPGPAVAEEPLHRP
Chain of bovine serum albumin and sodium dodecyl sulfate (P02769 25-607): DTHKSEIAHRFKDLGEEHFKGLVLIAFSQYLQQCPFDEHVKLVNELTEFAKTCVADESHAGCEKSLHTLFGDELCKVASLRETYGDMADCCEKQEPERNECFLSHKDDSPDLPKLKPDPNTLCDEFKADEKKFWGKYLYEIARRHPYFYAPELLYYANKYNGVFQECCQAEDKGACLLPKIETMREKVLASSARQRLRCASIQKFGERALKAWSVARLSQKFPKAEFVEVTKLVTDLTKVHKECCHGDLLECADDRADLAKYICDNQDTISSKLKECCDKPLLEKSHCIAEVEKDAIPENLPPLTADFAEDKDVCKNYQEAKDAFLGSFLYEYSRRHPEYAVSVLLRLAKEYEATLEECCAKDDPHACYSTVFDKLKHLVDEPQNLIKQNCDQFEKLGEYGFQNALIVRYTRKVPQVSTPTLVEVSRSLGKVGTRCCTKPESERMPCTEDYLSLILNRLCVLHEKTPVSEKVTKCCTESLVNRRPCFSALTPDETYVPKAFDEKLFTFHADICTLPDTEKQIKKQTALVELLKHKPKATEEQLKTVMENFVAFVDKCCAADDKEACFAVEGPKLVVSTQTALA
T2 sequence (P42858+P0A3G2 fused with the stated changes): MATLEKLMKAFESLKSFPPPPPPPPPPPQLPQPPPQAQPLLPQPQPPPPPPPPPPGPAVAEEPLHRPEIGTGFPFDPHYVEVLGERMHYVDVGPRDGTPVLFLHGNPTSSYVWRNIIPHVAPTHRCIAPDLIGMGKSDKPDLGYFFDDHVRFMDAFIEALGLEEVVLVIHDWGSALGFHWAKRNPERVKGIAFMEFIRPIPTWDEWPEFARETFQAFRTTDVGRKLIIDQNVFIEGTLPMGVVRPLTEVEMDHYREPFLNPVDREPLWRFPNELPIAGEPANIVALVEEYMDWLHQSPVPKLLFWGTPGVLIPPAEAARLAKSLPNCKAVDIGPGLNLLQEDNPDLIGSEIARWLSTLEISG

For `CN(C)c1ccc(/C=C2N=C(/C=C/c3ccc(N(CCO)CCO)cc3)N(CC(=O)N[C@H]3CC[C@H](C(=O)NCCOCCOCCCCCCCl)CC3)C\2=O)cc1` [Compound 4, (1r,4r)-4-(2-((Z)-2-((E)-4-(bis(2-hydroxyethyl)amino)styryl)-4-(4-(dimethylamino)benzylidene)-5-oxo-4,5-dihydro-1H-imidazol-1-yl)acetamido)-N-(2-(2-((6-chlorohexyl)oxy)ethoxy)ethyl)cyclohexanecarboxamide], the “fluorescence in cells expressing Htt-97Q without Halo-Tag” value [1] was “no fluorescent signal”, the “fluorescence in cells expressing Htt-0Q-Halo” value [2] was “dark background” and the “fluorescence in cells co-expressing Htt-Q97-GFP and Halo-Tag or just expressing Htt-Q97” value [3] was “showed no fluorescence of 4”. For the same compound, the Em [4, 7] was 600 nm, the Ex [4, 7] was 530 nm and the “kinetics of fluorescence increase versus turbidity” value ([4]; SOD1-A4V-Halo conjugate) was “faster than that of turbidity”. For the same compound, the “fluorescent background signal versus SBD and CCVJ” value [5] was “substantially lower fluorescent background signal”, the “fluorescent properties of 4 compared with 3” value [6] was “identical to 3” and the “B (brightness)” value ([6]; calculated using B = Φϵ) was 8,734 M^−1cm^−1. For the same compound, the “Φ (quantum yield)” value ([6]; in glycerol) was 0.230, the λem ([6]; in glycerol) was 628 nm and the λex ([6]; in glycerol) was 530 nm. For the same compound, the λabs ([6]; maximum absorbance measured in glycerol) was 534 nm and the “ϵ (extinction coefficient)” value ([6]; measured in glycerol) was 36,241 M^−1cm^−1.
